Activity calls are given as the source filed them. No cut-off for these calls is given here.
Tests used:
Type in all cases: functional, organism-based
[1] = test system: Microcystis aeruginosa; experiment: Antialgal activity against Microcystis aeruginosa NIES 44 after 24 hrs by fluorophotometric method
[2] = test system: Dolichospermum flos-aquae; experiment: Antialgal activity against Anabaena flos-aquae NIES 73 after 48 hrs by fluorophotometric method
[3] = test system: Microcystis aeruginosa; experiment: Antialgal activity against Microcystis aeruginosa NIES 44 up to 500 uM after 24 hrs by fluorophotometric method

Row | SMILES | IC50 [1] [µM] | IC50 [2] [µM] | Activity [3]
1 | O=C(O)c1cc(O)c(O)c(O)c1 [GALLIC ACID] | 19 | 33 | 
2 | O=C(O[C@@H]1[C@@H](OC(=O)c2cc(O)c(O)c(O)c2)[C@H](O)O[C@@H]2COC(=O)c3cc(O)c(O)c(O)c3-c3c(cc(O)c(O)c3O)C(=O)O[C@@H]12)c1cc(O)c(O)c(O)c1 | 3.7 | 9.5 | 
3 | O=c1c(O[C@@H]2O[C@@H](CO)[C@H](O)[C@H]2O)c(-c2ccc(O)c(O)c2)oc2cc(O)cc(O)c12 [AVICULARIN] | 180 | 28 | 
4 | C[C@@H]1O[C@@H](Oc2c(-c3ccc(O)c(O)c3)oc3cc(O)cc(O)c3c2=O)[C@H](O)[C@H](O)[C@H]1O [QUERCITRIN] | 9 | 45 | 
5 | O=C(O[C@@H]1O[C@@H]2COC(=O)c3cc(O)c(O)c(O)c3-c3c(cc(O)c(O)c3O)C(=O)O[C@H]2[C@H](OC(=O)c2cc(O)c(O)c(O)c2)[C@H]1OC(=O)c1cc(O)c(O)c(O)c1)c1cc(O)c(O)c(O)c1 [EUGENIIN] | 1.6 | 2.8 | 
6 | O=c1c(O)c(-c2ccc(O)c(O)c2)oc2cc(O)cc(O)c12 [QUERCETIN] | 12 | 25 | 
7 | OC[C@H]1OC(O)[C@H](O)[C@@H](O)[C@@H]1O (stereo partly drawn) |  |  | inactive

Reference: ChEMBL document CHEMBL1147318, “Inhibitory Substances from Myriophyllum brasiliense on Growth of Blue-Green Algae” (J Nat Prod, 1989)
